Measurements reported in the supplement of paper PMC8967900.

Key:
Assay in all cases: selective drug sensitivity score (sDSS, relative to normal bone marrow) (sDSS (score)); higher = more potent and effective on the cell line relative to normal bone marrow cells
Details in all cases: 72 h
RCH-ACV = tested on: RCH-ACV
COG-LL-394h = tested on: COG-LL-394h
HPB-ALL = tested on: HPB-ALL
RPMI-8402 = tested on: RPMI-8402
MOLT-16 = tested on: MOLT-16
ALL-PO = tested on: ALL-PO
P30-OHKUBO = tested on: P30-OHKUBO
NALM-16 = tested on: NALM-16
CCRF-CEM = tested on: CCRF-CEM
SUP-B15 = tested on: SUP-B15
380 = tested on: 380
MOLT-14 = tested on: MOLT-14
COG-LL-402h = tested on: COG-LL-402h
TMD5 = tested on: TMD5
TANOUE = tested on: TANOUE
KARPAS-45 = tested on: KARPAS-45
COG-LL-355h = tested on: COG-LL-355h
SEM cells = tested on: SEM cells
697 = tested on: 697
P12-ICHIKAWA = tested on: P12-ICHIKAWA
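Note: ALL cell lines in 384-well plates, five doses spanning 10,000-fold, each plate scaled between vehicle and 100 µmol/L benzalkonium chloride controls, sDSS an adapted area-under-curve metric.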

SMILES | selective drug sensitivity score (RCH-ACV) | selective drug sensitivity score (COG-LL-394h) | selective drug sensitivity score (HPB-ALL) | selective drug sensitivity score (RPMI-8402) | selective drug sensitivity score (MOLT-16) | selective drug sensitivity score (ALL-PO) | selective drug sensitivity score (P30-OHKUBO) | selective drug sensitivity score (NALM-16) | selective drug sensitivity score (CCRF-CEM) | selective drug sensitivity score (SUP-B15) | selective drug sensitivity score 380 | selective drug sensitivity score (MOLT-14) | selective drug sensitivity score (COG-LL-402h) | selective drug sensitivity score (TMD5) | selective drug sensitivity score (TANOUE) | selective drug sensitivity score (KARPAS-45) | selective drug sensitivity score (COG-LL-355h) | selective drug sensitivity score (SEM cells) | selective drug sensitivity score 697 | selective drug sensitivity score (P12-ICHIKAWA)
CN1CC[C@H](c2c(O)cc(O)c3c(=O)cc(-c4ccccc4Cl)oc23)[C@H](O)C1 [Alvocidib] (top concentration 10000 nM) | 2.7 | -2.5 | -3.1 | -1 | 0.7 | -6.7 | 1.1 | -3.6 | 0.6 | 0.1 | -4.3 | 1.3 | -2.1 | -5.7 | -11 | 2 | -0.1 | -3.5 | 1.3 | -2.1
CC(C)c1c(C(=O)Nc2ccccc2)c(-c2ccccc2)c(-c2ccc(F)cc2)n1CC[C@@H](O)C[C@@H](O)CC(=O)O [Atorvastatin] (top concentration 10000 nM) | -1 | -1.2 | -1.5 | 2.9 | 2 | 1.1 | -2.2 | -3.7 | 0.3 | 0.8 | -3 | -0.9 | -1.8 | -1.6 | -3.7 | 3.5 | 4.2 | 0.4 | -2.4 | 0.7
Nc1ncn([C@@H]2O[C@H](CO)[C@@H](O)[C@H]2O)c(=O)n1 [Azacitidine] (top concentration 10000 nM) | 5.24 | -2.26 | 7.94 | 3.34 | 7.14 | 6.94 | 6.54 | 1.84 | 9.34 | 11.6 | 5.44 | 9.04 | 1.74 | -2.26 | -0.86 | -1.16 | 5.14 | 8.74 | 10.9 | 3.74
Cc1cc(-c2nc(-c3ccc(OC(F)(F)F)cc3)no2)nn1Cc1ccnc(N2CCN(C3CC3)CC2)c1 [BAY_87-2243] (top concentration 1000 nM) | 14.4 | 23.5 | 8.54 | 28 | 22.9 | 5.54 | 6.44 | 4.24 | 6.34 | 14.1 | -8.66 | 8.64 | -3.16 | -1.16 | 25.2 | 16.5 | 10.8 | 6.84 | 18.7 | 23.9
O=C(Nc1cccc(Nc2ncc(Br)c(NCCc3cnc[nH]3)n2)c1)N1CCCC1 [BX-912] (top concentration 10000 nM) | 13.3 | -2.24 | -0.34 | 3.36 | 9.06 | 14 | 10.9 | -0.14 | 9.96 | 11.9 | 8.26 | 9.36 | 6.16 | 2.06 | -7.04 | 3.56 | 1.36 | 13.4 | 10.4 | 10.2
C=C(c1ccc(C(=O)O)cc1)c1cc2c(cc1C)C(C)(C)CCC2(C)C [Bexarotene] (top concentration 10000 nM) | -5.1 | -5.3 | -5.1 | -4 | 1.7 | 3.7 | -5.3 | -4.1 | -3.4 | -4.8 | 24 | 0.4 | -5.3 | 0.1 | -5.3 | -1.8 | -5.1 | 2.9 | -2.7 | -0.5
Cn1cnc2c(F)c(Nc3ccc(Br)cc3F)c(C(=O)NOCCO)cc21 [Binimetinib] (top concentration 1000 nM) | -2.22 | 0.48 | -2.22 | -2.22 | -0.42 | 3.08 | -2.22 | -0.12 | 1.38 | 11.2 | 1.58 | 4.38 | 3.88 | 2.38 | -0.82 | -1.82 | 5.58 | -2.22 | -1.62 | -0.42
COc1cc(N2CCC(N3CCN(C)CC3)CC2)ccc1Nc1ncc(Cl)c(Nc2ccccc2P(C)(C)=O)n1 [Brigatinib] (top concentration 1000 nM) | 8.86 | -1.84 | 3.06 | -2.44 | -3.34 | 4.16 | -3.34 | -3.14 | -3.34 | -3.34 | -3.34 | 3.16 | -2.04 | -2.04 | -3.34 | -1.74 | 2.86 | 4.06 | -1.84 | -3.34
CC1=NN(c2ccc(C(=O)O)cc2)C(=O)C1=Cc1ccc(-c2cc(C)c(C)cc2[N+](=O)[O-])o1 [C646] (top concentration 25000 nM) | 1.94 | -0.66 | 5.74 | -2.06 | 4.84 | 5.04 | 3.94 | -2.06 | 1.74 | 5.04 | -0.86 | 3.84 | -0.16 | -2.06 | -2.06 | 1.74 | 4.44 | -0.26 | 2.34 | -2.06
CCN1C(=O)CNc2ncc(-c3ccc(-c4nc[nH]n4)nc3C)nc21 [CC-115] (top concentration 10000 nM) | 17.5 | -2.06 | 1.84 | 0.94 | 4.74 | 4.34 | 2.94 | 1.34 | 4.24 | 2.34 | 10.6 | 1.24 | 3.44 | -1.66 | -5.46 | 1.34 | 1.44 | 0.04 | 4.14 | 1.04
